Columns and labels:
[1] = 95 hours, cited from earlier work
[2] = cited from earlier work
[3] = tested on: foetal haemoglobin, in particular the γ chain; conditions: acids and their salts, cited from earlier work; for synthesis of foetal haemoglobin: in particular γ chain
HL 60 cells = assay: Antiproliferative test: inhibition of growth of HL 60 cells; assay type: cell-based; conditions: concentrations 0.5 to 1 mM
Procedure: The tests were carried out on stabilized cell lines (HL 60 and others) in the absence of growth factors. The concentrations of butyric derivatives vary from 0.5 to 1 mM.
The following parameters were evaluated by "FASC Scan" scanning and flow cytometry:
incorporation of tritiated thymidine (exploration of cell metabolism);
incorporation of propylium iodide (determination of the phase of the cell cycle);

[4] = tested on: γ chain of the haemoglobin; assay: Level of γ chain of the haemoglobin in erythroleukaemic cell lines; assay type: cell-based; conditions: 0.70 mM (α-MAM-A), 0.35 mM (Xyli-C); for level of γ chain of the haemoglobin in the presence of A.P.A.A.P.: 10% without ester; for increase in level of γ chain of the haemoglobin: erythroleukaemic cell lines, normal human serum
Procedure: The following parameters were evaluated: level of γ chain of the haemoglobin (immunological quantitative determination by double antigen antibody reaction and by immunocytochemical quantitative determination in the presence of alkaline phosphatase-anti-alkaline phosphatase A.P.A.A.P.);

[5] = cited from earlier work; remark: listed apart in the source

SMILES: CCCC(=O)O[C@@H]1[C@H]2OC(C)(C)O[C@H]2O[C@@H]1[C@H](O)CO [3-O-n-butanoyl-1,2-O-isopropylidene-α-D-glucofuranose]
- 5-O-n-butanoyl isomer in the non-deesterified fraction ([1]; pH=8.1, 25° C.): 4%
- 6-O-n-butanoyl isomer in the non-deesterified fraction ([1]; pH=8.1, 25° C.): 90%
- initial ester in the non-deesterified fraction ([1]; pH=8.1, 25° C.): 6%
- deesterification ([1]; same conditions (pH=8.1, 25° C.), Goueth et al.): 20%
- internal transesterification in solution [2]: undergoes an internal transesterification

SMILES: O=C(O)CCCc1ccccc1 [4-phenylbutyric acid]
- γ gene of human foetal haemoglobin [3]: induce the γ gene of human foetal haemoglobin
- synthesis of foetal haemoglobin [3]: stimulate the synthesis of foetal haemoglobin

SMILES: CCCC(=O)OCC1OC(C)(C)OC1C(O)CO (stereo not drawn) [MAXyli-C, 1-O-n-butanoyl-2,3-O-isopropylidenexylitol]
- % of inhibition of growth HL 60 (HL 60 cells; 3 d.): 80%
- % of inhibition of growth HL 60 (HL 60 cells; 4 d.): 90%

SMILES: CCCC(=O)OC[C@H](O)[C@@H](O)[C@H](O)CO [Xyli-C, 1-O-n-butanoylxylitol]
- % of inhibition of growth HL 60 (HL 60 cells; 5 d.): 70%
- level of γ chain of the haemoglobin in the presence of A.P.A.A.P. [4]: 17%
- increase in level of γ chain of the haemoglobin [4]: increase the level of γ chain of the haemoglobin

SMILES: CCCC(=O)O [n-butyric acid]
- γ gene of human foetal haemoglobin [3]: induce the γ gene of human foetal haemoglobin
- synthesis of foetal haemoglobin [3]: stimulate the synthesis of foetal haemoglobin
- in vivo plasma lifetime [5]: very short in vivo plasma lifetime

SMILES: O=C(O)Cc1ccccc1 [phenylacetic acid]
- γ gene of human foetal haemoglobin [3]: induce the γ gene of human foetal haemoglobin
- synthesis of foetal haemoglobin [3]: stimulate the synthesis of foetal haemoglobin

SMILES: CCCC(=O)O[C@H]1O[C@H]([C@H](O)CO)[C@@H]2OC(C)(C)O[C@H]12 [α-MAM-A, O-n-butanoyl-2,3-O-isopropylidene-α-D-mannoside]
- % of inhibition of growth HL 60 (HL 60 cells; 2 d.): 40%
- % of inhibition of growth HL 60 (HL 60 cells; 5 d.): 80%
- level of γ chain of the haemoglobin in the presence of A.P.A.A.P. [4]: 22%
- increase in level of γ chain of the haemoglobin [4]: increase the level of γ chain of the haemoglobin
